Patent US20050014722A1, “Process for preparing n-acylated lysophosphatidylcholine and pharmaceutical composition for treatment of metabolic bone disease comprising said compounds” (priority 2001, published 2005)

Columns and labels:
[1] = test system: differentiation of osteoclasts in co-culture of bone marrow cells and osteoblasts; assay: Osteoclast differentiation in co-culture of osteoblasts and bone marrow cells (TRAP staining); assay type: cell-based, ICR mice; conditions: for Inhibitory activity on osteoclast differentiation in co-culture of bone marrow cells and osteoblasts: 4 μM; for TRAP-positive osteoclast cell number: co-culture, vitamin D3 and PGE2, 6 days, control 397+36.75
Protocol: (§1) Primary osteoblasts, bone marrow cells and osteoclast precursor cells were cultured in α-Minimum Essential Medium (α-MEM, Gibco BRL) supplemented with 10% (v/v) fetal bovine serum (Gibco BRL), and 1× antibiotics containing penicillin/streptomycin (Gibco BRL).
Until now, osteoclast cell lines have not been established, making it difficult to study differentiation of osteoclasts. Osteoclasts originate from hematopoietic stem cells derived from bone marrow, and differentiate with the help of osteoblasts/stromal cells. For these reasons, the co-culture system of osteoblasts and bone marrow cells is used for differentiation of osteoclasts. In these Experimental Examples, a differentiation system of bone marrow cells to osteoclasts was established by co-culture of osteoblasts and bone marrow cells, and, in this system, the CHJ-0014 compound was evaluated for its inhibitory effect on differentiation of osteoclasts.
After sacrificing one-day postnatal ICR mice and disinfecting them in 70% ethanol, calvarias were collected using surgical scissors and forceps, cut into several pieces, and transferred into 3× HBSS contained in a 60-mm culture dish. 0.1% collagenase (Gibco BRL) and 0.2% dispase (Boehringer Mannheim) were added to the solution, followed by incubation at 37° C. for 15 min. The treatment of calvarias with collagenase and dispase was repeated 4 more times. From the second treatment of calvarias with collagenase and dispase, the solution was centrifuged after each treatment at 1600 rpm for 5 min to harvest cells, thereby collecting osteoblasts. The collected osteoblasts were plated onto a 100-mm culture dish at a density of about 1-2×10^6 cells, and cultured in 15 ml of α-MEM supplemented with 10% FBS for 3 days. Thereafter, the proliferated osteoblasts were aliquotted into cryo-vials, and stored in liquid nitrogen until use in co-culture of osteoblasts and bone marrow cells.
(§2) After sacrificing 6-7 week ICR female mice by cervical dislocation and disinfecting their rear legs in 70% ethanol, tibias were isolated aseptically. The isolated tibias were placed into 3× HBSS (Gibco BRL), and soft tissue was completely removed. Both ends of tibias were cut, and 1×α-MEM was injected into bone marrow and then sucked up using a 1 ml syringe, collecting bone marrow cells. After sufficient suspending by pipetting, the collected bone marrow cells were centrifuged at 1600 rpm for 5 min to harvest cells. The resulting pellet (bone marrow cells and erythrocytes) was suspended in about 15-20 ml of ACK buffer (155 mM NH4Cl, 11 mM KHCO3, 0.01 mM EDTA). After incubation for 2 min, phosphate buffer was added to the cell suspension to minimize damage to bone marrow cells and lyse erythrocytes.
(§3) Thereafter, the cell suspension was centrifuged (1600 rpm, 5 min), and the resulting cell pellet was suspended in 10% FBS-containing α-MEM.
The isolated and cultured osteoblasts and bone marrow cells were co-cultured, as follows. Bone marrow cells and osteoblasts were plated onto a 48-well plate at a density of 2×10^5 cells and 2×10^4 cells per well, respectively, and co-cultured in 10% FBS-containing x-MEM. After adding vitamin D3 (10^−8 M) and PGE 2 (Prostaglandin E 2, 10^−6 M) to the culture medium, the cells were treated with the CHJ-0014 compound at various concentrations of 1.65 μM, 3.3 μM and 6.6 μM. A co-culture group not treated with the CHJ-0014 compound was used as a control. When the culture medium was exchanged with a fresh medium after incubation for 3 days, vitamin D3 (10^−8 M) and PGE 2 (10^−6 M) were again added to the medium, and the CHJ-0014 compound was also added to the medium at the same concentrations as above.
After incubation for 6 days, the culture medium was removed, and completely differentiated osteoclasts were fixed with 10% formalin for 5 min. After removing formalin, the fixed osteoclasts were treated with 0.1% Triton X-100 for 10 sec. […]

osteoblasts = assay: Cytotoxicity by MTT assay, osteoblasts; assay type: cell-based, ICR mice; conditions: 6.6 μM, 24 hrs
[2] = test system: osteoclast precursor cells; assay: Differentiation of osteoclast precursor cells isolated from bone, ODF and M-CSF (TRAP staining); assay type: cell-based, ICR mice; conditions: for TRAP-positive osteoclast cell number: osteoclast precursor cells, ODF 100 ng/ml, M-CSF 30 ng/ml, day 9, control 344±43.7
Protocol: as §1
Osteoclast progenitors derived from bone marrow cells migrate eventually to bone, differentiate to osteoclast precursors therein, and further differentiate to active osteoclasts having bone resorption ability and participate in bone resorption. That is, osteoclast precursor cells present in bone are at a different differentiation stage from the active osteoclasts. Recently, a cytokine playing a critical role in osteoclast differentiation was identified to be ODF (also called OPGL or RANKL), and a recombinant ODF protein can be produced on a large scale, thereby facilitating osteoclast differentiation by primary cell culture.
Osteoclast precursor cells were isolated from […]. After sacrificing 5-6 week ICR female mice by cervical dislocation and disinfecting their rear legs in 70% ethanol, tibias and femurs were isolated aseptically. After removing soft tissue according to the same method as in Example 2 from the isolated tibias and femurs, 3× HBSS (Gibco BRL) was injected into bone marrow several times, thereby collecting bone marrow cells, as follows. Bone was cut into small pieces using a surgical scissor, and incubated in a collagenase solution (1 mg/ml collagenase type II, 0.05% trypsin, 4 mM EDTA, Gibco BRL) contained in a culture dish at 37° C. for 15 min. The collagenase treatment was carried out 4 more times. After being treated three times, bone pieces were further cut into a smaller size. After one more treatment with collagenase, the bone pieces were washed with 3× HBSS five times. After completely removing the enzyme solution by centrifugation, the bone pieces were suspended in pre-cooled α-MEM, and placed onto ice for 15 min. After vortexing for 1 min, an equal volume of α-MEM was added to the bone suspension, followed by incubation on ice for 15 min. The bone suspension was filtered through a sterilized mass, and the obtained cells were cultured in 10% FBS-containing α-MEM.
The isolated and cultured osteoclast precusor cells were plated onto a 48-well plate at a density of 0.5×10^6 cells. After adding ODF (100 ng/ml) and M-CSF (30 ng/ml) to the medium, the cells were treated with the CHJ-0014 compound at various concentrations of 0.825 μM, 1.65 μM, 3.3 μM and 6.6 μM. A group not treated with the CHJ-0014 compound was used as a control. When the culture medium was exchanged with a fresh medium after incubation for 3 days, the cells were again treated with the identical amount of ODF, M-CSF and CHJ-0014. On day 6 after culturing, the culture medium was exchanged with a fresh medium, according to the same method as in on day 3. On day 9, TRAP staining was carried out, and TRAP-positive osteoclasts were counted under an optical microscope (×100).

murine bone marrow cells = assay: Cytotoxicity by MTT assay, bone marrow cells; assay type: cell-based; conditions: 6.6 μM, 24 hrs
[3] = test system: differentiation of osteoclasts in culture of bone marrow cells; assay: Osteoclast differentiation in culture of bone marrow cells induced by ODF and M-CSF (TRAP staining); assay type: cell-based, ICR mice; conditions: for TRAP-positive osteoclast cell number: bone marrow cells, ODF 50 ng/ml, M-CSF 30 ng/ml, control 240±44
Protocol: as §1, §2, §3
In this test, to evaluate this possible scenario, only bone marrow cells were treated with a recombinant ODF protein and inhibitory activity of the CHJ-0014 compound on osteoclast differentiation was investigated in culture of only bone marrow cells. Bone marrow cells, isolated according to the same method as in Experimental Example 1, were plated onto a 48-well plate at a density of 4×10^5 cells, and cultured in 10% FBS-containing α-MEM. After adding ODF (50 ng/ml) and M-CSF (30 ng/ml) to the medium, the cells were treated with the CHJ-0014 compound at various concentrations of 0.825 μM, 1.65 μM, 3.3 μM and 6.6 μM. When the culture medium was exchanged with a fresh medium after incubation for 3 days, the cells were again treated with the identical amount of ODF, M-CSF and CHJ-0014. After incubation for 6 days, the culture medium was exchanged with a fresh medium, and the cells were further cultured for 2 more days.
Completely differentiated osteoclasts were identified by TRAP staining. TRAP staining was carried out using the Leukocyte Acid Phosphatase Kit (Sigma, Cat. No. 387-A). The culture medium was removed, and completely differentiated osteoclasts were fixed with 10% formalin for 5 min. After removing formalin, the fixed osteoclasts were treated with 0.1% Trypton X-100 for 10 sec. After removing Trypton X-100, the cells were stained with a TRAP staining solution in the kit for 5 min. After eliminating the TRAP staining solution, the cells were washed with distilled water twice, dried, and TRAP-positive osteoclasts were counted under an optical microscope (×100).

peritoneal macrophages = assay: Cytotoxicity by MTT assay, peritoneal macrophages; assay type: cell-based; conditions: 6.6 μM, 24 hrs
[4] = test system: human embryonic kidney cell line 293T; assay: Cytotoxicity by MTT assay, 293T cells; assay type: cell-based; conditions: 6.6 μM, 24 hrs
[5] = test system: transcription factor NF-κB; assay: NF-κB activity by EMSA (electrophoresis mobility shift assay) in osteoclasts; assay type: cell-based; conditions: osteoclast nuclear extract
Protocol: The CHJ-0014 compound was investigated for its inhibitory effect on the activity of the transcription factor NF-κB participating in osteoclast differentiation by performing EMSA (electrophoresis mobility shift assay). Osteoclasts were prepared according to the same method as in Experimental Experiment 3, and incubated in hypotonic lysis buffer (10 mM HEPES, pH 7.9, 1.5 mM MgCl2, 10 mM KCl, 0.5 mM DTT, 0.5 mM PMSF) on ice for 10 min. The osteoclast-containing solution was transferred into a microcentrifuge, supplemented with 0.1% NP40, and incubated for 15 min with occasional agitation. After centrifugation (4,000 rpm, 15 min), the resulting cell pellet was suspended in 15 μl of high salt buffer (20 mM HEPES, pH 7.9, 420 mM NaCl, 25% glycerol, 1.5 mM MgCl2, 0.2 mM EDTA, 0.5 mM PMSF, 0.5 mM DTT), and placed onto ice for 20 min. 75 μl of storage buffer (20 mM HEPES, pH 7.9, 100 mM NaCl, 20% glycerol, 0.2 mM EDTA, 0.5 mM PMSF, 0.5 mM DTT) was added to the cell suspension, and incubated with agitation for 10 sec. After centrifugation (14,000 rpm, 20 min), the resulting supernatant was subjected to protein quantitative assay. Protein assay was performed using a DC Protein Assay Kit (Bio-Rad).
A NF-κB-specific oligomer (5′-AGTTGAGGGGACTTTCCCA GGC-3′, Santa Cruz) was radiolabeled using [γ-^32P]ATP and […], and used as a probe. […]

Compound	Inhibitory activity on osteoclast differentiation in co-culture of bone marrow cells and osteoblasts [1]	Cytotoxicity (MTT) (osteoblasts)	TRAP-positive osteoclast cell number ([2]; 0.825 μM)	TRAP-positive osteoclast cell number ([2]; 1.65 μM)	TRAP-positive osteoclast cell number ([2]; 3.3 μM)	TRAP-positive osteoclast cell number ([2]; 6.6 μM)	Effect on osteoclast differentiation during differentiation of osteoclast precursors isolated from bone ([2]; 0.825-6.6 μM)	Cytotoxicity (MTT) (murine bone marrow cells)	TRAP-positive osteoclast cell number ([3]; 0.825 μM)	TRAP-positive osteoclast cell number ([3]; 1.65 μM)	TRAP-positive osteoclast cell number ([3]; 3.3 μM)	TRAP-positive osteoclast cell number ([3]; 6.6 μM)	Effect on osteoclast differentiation induced by ODF in bone marrow cells ([3]; 0.825-6.6 μM)	Cytotoxicity (MTT) (peritoneal macrophages)	TRAP-positive osteoclast cell number ([1]; 1.65 μM)	TRAP-positive osteoclast cell number ([1]; 3.3 μM)	TRAP-positive osteoclast cell number ([1]; 6.6 μM)	Effect on differentiation of osteoclasts in co-culture of bone marrow cells and osteoblasts ([1]; 1.65-6.6 μM)	Cytotoxicity (MTT) [4]	Effect on activation of the transcription factor NF-κB by osteoclast differentiation factor (ODF) [5]
CCCCCCCCCCCCCCCCCC(=O)NC(CO)COP(=O)([O-])OCC[N+](C)(C)C [CHJ-0013, N-stearoyl-O-phosphocholine-L-serine methylhydroxy]	inhibit osteoclast differentiation	–	–	–	–	–	–	–	–	–	–	–	–	–	–	–	–	–	–	–
CCCCCCCCCCCCCCCCCC(=O)NC(CO)COP(=O)(O)OCC[N+](C)(C)C [CHJ-0014, N-stearoyl-O-phosphocholine-D-serine methylhydroxy]	inhibit osteoclast differentiation	did not show cytotoxicity	318±19.3	318±50.4	267±24	152±29.1	inhibits osteoclast differentiation during differentiation of osteoclast precursors isolated from bone in a dose-dependent manner	did not show cytotoxicity	185±12.9	172+9.3	87+3.5	36+3.6	inhibits osteoclast differentiation induced by ODF in bone marrow cells in a dose-dependent manner	did not show cytotoxicity	80±6.1	46±4.7	16±6.4	inhibits differentiation of osteoclasts in co-culture of bone marrow cells and osteoblasts in a dose-dependent manner	did not show cytotoxicity	suppress activation of the transcription factor NF-κB
